This is an account of results in patent publication US9458141B2, “Low molecular weight thyroid stimulating hormone receptor (TSHR) agonists” (The United States of America, as represented by the …, priority 2008, dated 2016).

This assay concerns the target T1, human TSHR (Homo sapiens, UniProt P16473).
T1 construct: expressed in transfected cells
The assay is described as follows: Homogeneous Time Resolved Fluorescence (HTRF) cAMP assay, TSHR cell line. The conditions noted are these: for AC50: HTRF cAMP, TSHR cell line, 30 minute incubation, read-out: AC50; for Emax: read-out: Maximum Activity compared to TSH, 100% activity = response of 30 mU/ml TSH, 0% = DMSO control; for Maximum Activity compared to TSH: 100% activity = response of 30 mU/ml TSH, 0% = DMSO control, in %. The format is cell-based. An excerpt:
Generation of Stable Cell-Lines Expressing TSHR, LHCGR or FSHR.
cDNA for human TSHR was amplified by PCR from hTSHR-pSVL (1) and inserted into the pcDNA3.1(−)/hygromycin vector using restriction sites XhoI and BamHI. cDNA for human LHCGR was amplified by PCR from hLHR-pGS5 (2) and was inserted into the pcDNA3.1(+)/hygromycin vector using restriction sites BamHI and XhoI. The FSHR cDNA in pcDNA3.1 was obtained from the Missouri S&T cDNA Resource Center (www.cDNA.org) and was subcloned into the pcDNA3.1(−)/hygromycin vector. Constructs were confirmed by sequencing (MWG Biotech). HEK-EM 293 cells were transfected with the cDNA of TSHR, LHCGR or FSHR using FuGENE 6 Transfection reagent (Roche Diagnostics) according to the manufacturer's protocol. Two days after transfection cells were passaged and grown in Dulbecco's modified Eagle's Medium (DMEM) supplemented with 10% fetal bovine serum, 100 units/ml penicillin and 10 μg/ml streptomycin (Life Technologies Inc.) and with hygromycin (250 μg/ml) as a selection marker. After 7 to 10 days hygromycin-resistant clones were selected, and after a few days of further growth submitted for a cAMP assay to identify clones that stably express the appropriate receptor. Cell Culture. Cells stably expressing TSHR, LHCGR or FSHR and parental HEK 293 cells were maintained in DMEM medium containing 10% FBS, 100 units/ml Penicillin, 100 μg/ml Streptomycin, at 37° C. in 5% CO2. For the cells lines stably expressing TSHR, LHCGR or FSHR, additional 250 μg/ml Hygromycin was added during the cell culture. The cells were seeded at a density of 3 to 4 million cells in a T175 flask containing 35 ml of media and were allowed to grow for 3 days to reach 80-90% confluence. A flask of HEK 293 cells at this density generally yielded 30 million cells total. Homogeneous Time Resolved Fluorescence (HTRF) cAMP Assay. Compounds were assayed using a HTRF cAMP detection kit (Cisbio, Bedford, Mass.) on both TSHR cell line and parental cell line. Briefly, 750 cells were plated in 2.5 μl/well of complete media (DMEM containing 10% FCS) in 1536 well solid bottom white plates and 20 nl/well compound in DMSO solution or controls was added. Following 30 minute incubation at room temperature, 2.5 μl/well of labeled d2 cAMP and 2.5 μl/well of anti-cAMP antibody (both diluted 1:20 in lysis buffer) were added to each well using a flying reagent dispenser (Aurora Discovery, San Diego). Plates were measured using the Envision plate reader (PerkinElmer, Boston, Mass.) with excitation at 330 nm and emissions of 615 nm and 660 nm. Compound Preparation. […] Data Analysis. […] The EC50 values of compounds were calculated from the concentration-response curves by nonlinear regression analysis using Prism software (GraphPad Software, San Diego, Calif.). Confirmatory cAMP Assay and Test for Selectivity Towards TSHR 50,000 cells/well were plated in complete media (DMEM containing 10% FCS) in 96 well plates. […] Following aspiration of the medium after incubation with compounds, cells were lysed using lysis buffer of the cAMP-Screen Direct™ System (Applied Biosystems, Cat # CSD200). The cAMP content of the cell lysate was determined using the manufacturer's protocol. […] Below is a List of Compounds that were Assayed via the Homogeneous Time Resolved Fluorescence (HTRF) cAMP Assay.
On the technique in general: Time-resolved FRET reads energy transfer from a long-lived donor to a nearby acceptor.

T1 sequence (P16473 21-764): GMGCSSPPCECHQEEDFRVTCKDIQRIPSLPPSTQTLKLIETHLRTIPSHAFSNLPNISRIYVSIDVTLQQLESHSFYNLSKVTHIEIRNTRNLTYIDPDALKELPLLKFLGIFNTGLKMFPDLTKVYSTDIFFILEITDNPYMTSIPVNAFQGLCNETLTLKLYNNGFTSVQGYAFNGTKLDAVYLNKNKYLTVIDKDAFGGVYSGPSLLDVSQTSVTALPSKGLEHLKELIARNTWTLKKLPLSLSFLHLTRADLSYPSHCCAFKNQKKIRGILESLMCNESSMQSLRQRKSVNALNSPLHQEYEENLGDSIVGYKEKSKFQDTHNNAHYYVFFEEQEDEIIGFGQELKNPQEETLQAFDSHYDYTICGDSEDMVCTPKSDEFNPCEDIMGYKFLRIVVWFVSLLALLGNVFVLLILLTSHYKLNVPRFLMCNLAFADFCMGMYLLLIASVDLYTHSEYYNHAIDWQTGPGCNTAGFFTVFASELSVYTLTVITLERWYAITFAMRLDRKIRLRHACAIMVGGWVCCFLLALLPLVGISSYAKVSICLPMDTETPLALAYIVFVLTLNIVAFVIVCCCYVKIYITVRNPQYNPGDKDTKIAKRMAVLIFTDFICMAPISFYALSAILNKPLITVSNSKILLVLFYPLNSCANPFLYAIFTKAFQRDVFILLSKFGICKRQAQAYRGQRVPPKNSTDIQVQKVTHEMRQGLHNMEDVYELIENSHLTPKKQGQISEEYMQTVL

What is called AC50 is the concentration at which the activity in the assay is half-maximal. Consider `COc1ccc(C2Cc3ccccc3C(=O)N2Cc2ccco2)cc1COc1ccc(NC(C)=O)cc1` (stereo not shown) [Structure 29], for which the half-maximal activity concentration (AC50) stood at 17.8 µM and the Emax turned out to be 139%.

For `COc1ccc(CN2C(=O)c3ccccc3NC2c2ccc(OC)c(COc3ccc(NC(C)=O)cc3)c2)cc1` (stereo not shown) [Structure 30], the “Maximum Activity compared to TSH” value stood at 63.65 and the half-maximal activity concentration (AC50) was determined as 3.16 µM.

For the compound `COc1ccc(CN(Cc2ccccc2)C(=O)c2ccccc2)cc1COc1ccc(NC(C)=O)cc1` [Structure 31], the “Maximum Activity compared to TSH” value came to 153.40 and the AC50 turned out to be 11.2 µM.

In the case of `COc1ccc(C2Nc3ccc(NC(C)=O)cc3C(=O)N2Cc2ccccc2)cc1COc1ccc(NC(C)=O)cc1` (stereo not shown) [Structure 32], the “Maximum Activity compared to TSH” value is on record as 137.62 and the concentration at half-maximal activity (AC50) came to 15.8 µM.

As for `COc1ccc(-c2nc3ccccc3c(=O)n2Cc2ccco2)cc1COc1ccc(NC(C)=O)cc1` [Structure 33], the AC50 worked out at 17.8 µM and the Emax came out at 169%.

As for `COc1ccc(C2Nc3ccccc3C(=O)N2Cc2ccco2)cc1COc1ccc(NC(C)=O)cc1` (stereo not shown) [Structure 34], the “Maximum Activity compared to TSH” value is 122.30 and the AC50 amounted to 15.8 µM.

Consider `COc1ccc(C2Oc3ccccc3C(=O)N2Cc2ccccc2)cc1COc1ccc(NC(C)=O)cc1` (stereo not shown) [Structure 35], for which the “Maximum Activity compared to TSH” value worked out at 115.01 and the concentration at half-maximal activity (AC50) stood at 12.6 µM.

For the compound `COc1ccc(C2Nc3ccc(NC(=O)CO)cc3C(=O)N2Cc2cccc(Cl)c2)cc1COc1ccc(NC(C)=O)cc1` (stereo not shown) [Structure 36], the half-maximal activity concentration (AC50) turned out to be 5.62 µM and the Emax came to 115%.

As to `COc1ccc(C2Nc3ccccc3C(=O)N2Cc2ccccc2)cc1CSc1ccc(NC(C)=O)cc1` (stereo not shown) [Structure 38], the “Maximum Activity compared to TSH” value worked out at 573.36 and the half-maximal activity concentration (AC50) stood at 7.08 µM.

As to `CCCCN1C(=O)c2ccccc2NC1c1ccc(OC)c(COc2ccc(NC(C)=O)cc2)c1` (stereo not shown) [Structure 39], the “Maximum Activity compared to TSH” value is reported as 123.60 and the half-maximal activity concentration (AC50) came to 20 µM.

With `COc1ccc(CN(Cc2ccccc2)C(=O)c2ccccc2)cc1COc1ccc(NC(C)=O)cc1` [Structure 40], the “Maximum Activity compared to TSH” value worked out at 128.80 and the AC50 stood at 11.2 µM.

On to `COc1ccc(CN(Cc2ccccc2)C(=O)c2ccco2)cc1COc1ccc(NC(C)=O)cc1` [Structure 41], for which the “Maximum Activity compared to TSH” value stood at 122.50 and the half-maximal activity concentration (AC50) turned out to be 15.8 µM.

Consider `COc1ccc(C2Nc3ccccc3C(=O)N2Cc2ccco2)cc1COc1ccc(NC(C)=O)cc1` (stereo not shown) [Structure 42], for which the “Maximum Activity compared to TSH” value came to 131.51 and the half-maximal activity concentration (AC50) was determined as 14.1 µM.

As for `COc1ccc(C2Nc3ccc(NC(=O)CO)cc3C(=O)N2Cc2cccc(Cl)c2)cc1COc1ccc(NC(C)=O)cc1` (stereo not shown) [Structure 43], the “Maximum Activity compared to TSH” value came out at 128.45 and the concentration at half-maximal activity (AC50) worked out at 10 µM.

For the compound `COc1ccc(C2Nc3ccccc3C(=O)N2Cc2cccc(Cl)c2)cc1COc1ccc(NC(C)=O)cc1` (stereo not shown) [Structure 44], the “Maximum Activity compared to TSH” value is on record as 105.58 and the concentration at half-maximal activity (AC50) worked out at 7.08 µM.

Consider `COc1ccc(C(=O)N(Cc2ccccc2)Cc2ccc(OC)c(COc3ccc(NC(C)=O)cc3)c2)cc1` [Structure 45], for which the “Maximum Activity compared to TSH” value was 141.85 and the concentration at half-maximal activity (AC50) amounted to 14.1 µM.

As to `COc1cccc(CN2C(=O)c3ccccc3NC2c2ccc(OC)c(COc3ccc(NC(C)=O)cc3)c2)c1` (stereo not shown) [Structure 46], the “Maximum Activity compared to TSH” value is on record as 182.52 and the AC50 stood at 7.94 µM.

In the case of `COc1ccc(-c2nc3ccccc3c(=O)n2Cc2ccco2)cc1COc1ccc(NC(C)=O)cc1` [Structure 47], the “Maximum Activity compared to TSH” value is given as 165.16 and the AC50 amounted to 25.1 µM.

For `COc1ccc(C2Nc3ccc(NC(=O)COC(C)=O)cc3C(=O)N2Cc2ccccc2)cc1COc1ccc(NC(C)=O)cc1` (stereo not shown) [Structure 48], the “Maximum Activity compared to TSH” value is 106.48 and the AC50 was determined as 8.91 µM.

With `COc1ccc(C2Nc3ccccc3C(=O)N2Cc2cccc(Cl)c2)cc1COc1ccc(NC(C)=O)cc1` (stereo not shown) [Structure 50], the “Maximum Activity compared to TSH” value came to 70.37 and the AC50 turned out to be 2.82 µM.

As to `COc1ccc(-c2nc3ccccc3c(=O)n2Cc2ccccc2)cc1COc1ccc(NC(C)=O)cc1` [Structure 52], the “Maximum Activity compared to TSH” value amounted to 104.78 and the AC50 stood at 8.91 µM.

As to `COc1ccc(C2Nc3ccccc3C(=O)N2Cc2ccco2)cc1COc1ccc(NC(C)=O)cc1` (stereo not shown) [Structure 53], the “Maximum Activity compared to TSH” value is 141.76 and the AC50 was found to be 12.6 µM.

For the compound `COc1ccc(C2Cc3ccccc3C(=O)N2Cc2ccccc2)cc1COc1ccc(NC(C)=O)cc1` (stereo not shown) [Structure 54], the “Maximum Activity compared to TSH” value is reported as 115.69 and the AC50 was 10 µM.

With `COc1ccc(CN(Cc2ccccc2)C(=O)c2ccccc2)cc1COc1ccc(NC(C)=O)cc1` [Structure 57], the “Maximum Activity compared to TSH” value was 100.67 and the AC50 came to 14.1 µM.

Turning to `COc1ccc(CN(Cc2ccccc2)C(=O)c2ccccc2)cc1COc1ccc(NC(C)=O)cc1` [Structure 58], the “Maximum Activity compared to TSH” value was 93.09 and the concentration at half-maximal activity (AC50) is 8.91 µM.

With `COc1ccc(C2Nc3ccccc3C(=O)N2Cc2ccco2)cc1COc1ccc(NC(C)=O)cc1` (stereo not shown) [Structure 59], the “Maximum Activity compared to TSH” value was found to be 226.43 and the concentration at half-maximal activity (AC50) is 17.8 µM.

On to `COc1ccc(C2Nc3ccccc3C(=O)N2Cc2cccc(C(F)(F)F)c2)cc1COc1ccc(NC(C)=O)cc1` (stereo not shown) [Structure 60], for which the “Maximum Activity compared to TSH” value turned out to be 189.97 and the AC50 came out at 6.31 µM.

Regarding `COc1ccc(C2Nc3cccc(O)c3C(=O)N2Cc2ccccc2)cc1COc1ccc(NC(C)=O)cc1` (stereo not shown) [Structure 61], the “Maximum Activity compared to TSH” value is reported as 302.11 and the AC50 amounted to 7.94 µM.

In the case of `COc1ccc(-c2nc3ccccc3c(=O)n2Cc2ccccc2)cc1COc1ccc(NC(C)=O)cc1` [Structure 64], the “Maximum Activity compared to TSH” value is 70.53 and the AC50 was determined as 7.94 µM.

Regarding `COc1ccc(CN(Cc2ccccc2)C(=O)c2ccccc2O)cc1COc1ccc(NC(C)=O)cc1` [Structure 65], the half-maximal activity concentration (AC50) was 14.1 µM and the Emax came out at 51.6%.

For the compound `COc1ccc(C2Nc3ccc(NC(=O)COC(C)=O)cc3C(=O)N2Cc2ccccc2)cc1COc1ccc(NC(C)=O)cc1` (stereo not shown) [Structure 66], the “Maximum Activity compared to TSH” value was determined as 64.52 and the AC50 came to 8.91 µM.

Consider `COc1ccc(C2Nc3ccccc3C(=O)N2CCc2ccccc2)cc1COc1ccc(NC(C)=O)cc1` (stereo not shown) [Structure 67], for which the “Maximum Activity compared to TSH” value was found to be 82.36 and the AC50 amounted to 7.94 µM.

Regarding `COc1ccc(CN(Cc2ccccc2)C(=O)C2CC2)cc1COc1ccc(NC(C)=O)cc1` [Structure 68], the half-maximal activity concentration (AC50) was 22.4 µM and the Emax turned out to be 74.8%.

`COc1ccc(CN(Cc2ccccc2)C(=O)c2ccncc2)cc1COc1ccc(NC(C)=O)cc1` [Structure 69]: the “Maximum Activity compared to TSH” value is reported as 44.83 and the concentration at half-maximal activity (AC50) turned out to be 25.1 µM.

As for `COc1ccc(C2Nc3ccccc3C(=O)N2CCc2ccccc2)cc1COc1ccc(NC(C)=O)cc1` (stereo not shown) [Structure 70], the “Maximum Activity compared to TSH” value came to 53.96 and the half-maximal activity concentration (AC50) worked out at 10 µM.

With `COc1ccc(CN(Cc2ccccc2)C(=O)c2cccc(C#N)c2)cc1COc1ccc(NC(C)=O)cc1` [Structure 71], the “Maximum Activity compared to TSH” value is given as 44.19 and the AC50 is 7.94 µM.

Consider `COc1ccc(C2Nc3ccccc3C(=O)N2Cc2ccc(Cl)cc2)cc1COc1ccc(NC(C)=O)cc1` (stereo not shown) [Structure 72], for which the AC50 was determined as 3.98 µM and the Emax was 55.2%.

Consider `COc1ccc(CN(Cc2ccccc2)C(=O)c2ccc(O)cc2)cc1COc1ccc(NC(C)=O)cc1` [Structure 73], for which the “Maximum Activity compared to TSH” value is 75.04 and the AC50 came out at 28.2 µM.
